For 31 compounds, IC50 results are on record in patent publication US11964953B2, “Substituted aminothiazoles as DGKzeta inhibitors for immune activation” (Bayer Aktiengesellschaft, priority 2020, dated 2024).

This experiment has as its target human DGKζ (Homo sapiens (Human), UniProt Q13574). In words: Human DGKζ kinase activity inhibition assay (ADP-Glo). It counts as biochemical. To be noted: in vitro human DGKζ kinase activity inhibition assay; read-out: IC50. In short, it runs like this: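 Enzyme was C-terminally FLAG-tagged full-length recombinant human DGKζ from baculovirus-infected insect cells. Substrate preparation used octyl-β-D-glucopyranoside in 50 mM MOPS pH 7.4 with sonication; ADP generated was quantified by ADP-Glo luminescence as activity measure.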

The structures appear in SMILES notation.

human DGKζ, sequence (Q13574 other isoform, or with tags, fused parts or gaps): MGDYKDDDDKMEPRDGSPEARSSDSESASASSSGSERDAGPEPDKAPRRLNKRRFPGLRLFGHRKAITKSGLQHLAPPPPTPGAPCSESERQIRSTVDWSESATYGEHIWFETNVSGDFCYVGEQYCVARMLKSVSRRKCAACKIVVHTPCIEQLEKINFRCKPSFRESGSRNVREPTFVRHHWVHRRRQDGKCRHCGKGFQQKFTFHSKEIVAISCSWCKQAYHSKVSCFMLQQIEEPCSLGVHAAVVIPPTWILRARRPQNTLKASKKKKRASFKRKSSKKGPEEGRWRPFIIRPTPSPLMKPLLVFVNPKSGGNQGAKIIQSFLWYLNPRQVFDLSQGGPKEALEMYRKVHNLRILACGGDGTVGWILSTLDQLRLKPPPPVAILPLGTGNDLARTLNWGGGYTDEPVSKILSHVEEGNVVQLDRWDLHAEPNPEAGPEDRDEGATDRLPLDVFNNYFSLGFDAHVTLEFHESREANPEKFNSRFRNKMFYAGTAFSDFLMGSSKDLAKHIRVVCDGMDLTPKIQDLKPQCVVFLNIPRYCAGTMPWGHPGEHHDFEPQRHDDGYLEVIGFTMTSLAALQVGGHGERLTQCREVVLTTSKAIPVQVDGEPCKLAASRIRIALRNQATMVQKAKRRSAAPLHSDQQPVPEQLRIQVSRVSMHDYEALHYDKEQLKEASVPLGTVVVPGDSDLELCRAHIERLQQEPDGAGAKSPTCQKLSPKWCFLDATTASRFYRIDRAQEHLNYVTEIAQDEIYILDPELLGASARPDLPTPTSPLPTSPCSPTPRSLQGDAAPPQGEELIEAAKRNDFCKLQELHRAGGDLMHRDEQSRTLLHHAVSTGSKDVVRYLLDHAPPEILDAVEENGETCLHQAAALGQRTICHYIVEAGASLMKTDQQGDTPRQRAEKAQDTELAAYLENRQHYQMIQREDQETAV

Take `CC(C(N)=O)N(c1ccc(F)cc1)c1nc(N)c(C(=O)c2ccc(OC(C)(C)C(=O)NCc3ccc(Cl)cc3)cc2)s1` (racemic) [Example 273, rac-2-[4-[4-amino-2-(N-(2-amino-1-methyl-2-oxo-ethyl)-4-fluoro-anilino)thiazole-5-carbonyl]phenoxy]-N-[(4-chlorophenyl)methyl]-2-methyl-propanamide]: the IC50 was 0.02 µM.

As to `CC(C(N)=O)N(c1ccc(F)cc1)c1nc(N)c(C(=O)c2ccc(Br)nc2)s1` (racemic) [Example 274, rac-2-(N-[4-amino-5-(6-bromopyridine-3-carbonyl)thiazol-2-yl]-4-fluoro-anilino)propanamide], the concentration for half-maximal inhibition (IC50) was found to be 0.107 µM.

Take `CC(C(N)=O)N(c1ccc(F)cc1)c1nc(N)c(C(=O)c2ccc(N3CCC(C(F)(F)F)CC3)nc2)s1` (racemic) [Example 275, rac-2-(N-[4-amino-5-[6-[4-(trifluoromethyl)-1-piperidyl]pyridine-3-carbonyl]thiazol-2-yl]-4-fluoro-anilino)propanamide]: the IC50 came out at 0.029 µM. Then `CC1CCN(c2ccc(C(=O)c3sc(N(c4ccc(F)cc4)C(C)C(N)=O)nc3N)cn2)CC1` (racemic) [Example 276, rac-2-(N-[4-amino-5-[6-(4-methyl-1-piperidyl)pyridine-3-carbonyl]thiazol-2-yl]-4-fluoro-anilino)propanamide], with 0.029 µM; and `CC(C(N)=O)N(c1ccc(F)cc1)c1nc(N)c(C(=O)c2ccc(N3CCC(C4COC4)CC3)nc2)s1` (racemic) [Example 277, rac-2-(N-[4-amino-5-[6-[4-(oxetan-3-yl)-1-piperidyl]pyridine-3-carbonyl]thiazol-2-yl]-4-fluoro-anilino)propanamide], with 0.494 µM; and `CC(C(N)=O)N(c1ccc(F)cc1)c1nc(N)c(C(=O)c2ccc(N(C)C)nc2)s1` (racemic) [Example 278, rac-2-(N-[4-amino-5-[6-(dimethylamino)pyridine-3-carbonyl]thiazol-2-yl]-4-fluoro-anilino)propanamide], with 0.23 µM. Then `CC(C(N)=O)N(c1ccc(F)cc1)c1nc(N)c(C(=O)c2ccc(N3CCC(C)(C)CC3)nc2)s1` (racemic) [Example 279, rac-2-(N-[4-amino-5-[6-(4,4-dimethyl-1-piperidyl)pyridine-3-carbonyl]thiazol-2-yl]-4-fluoro-anilino)propanamide], with 0.048 µM; and `CC(C(N)=O)N(c1ccc(F)cc1)c1nc(N)c(C(=O)c2ccc(N3CC4CCC(C4)C3)nc2)s1` (racemic) [Example 280, rac-2-(N-[4-amino-5-[6-(3-azabicyclo[3.2.1]octan-3-yl)pyridine-3-carbonyl]thiazol-2-yl]-4-fluoro-anilino)propanamide], with 0.043 µM; and `CC1CC(C)CN(c2ccc(C(=O)c3sc(N(c4ccc(F)cc4)C(C)C(N)=O)nc3N)cn2)C1` (racemic) [Example 281, rac-2-(N-[4-amino-5-[6-(3,5-dimethyl-1-piperidyl)pyridine-3-carbonyl]thiazol-2-yl]-4-fluoro-anilino)propanamide], with 0.098 µM. Then `CC(C(N)=O)N(c1ccc(F)cc1)c1nc(N)c(C(=O)c2ccc(N3CC4CC4C3)nc2)s1` (racemic) [Example 282, rac-2-(N-[4-amino-5-[6-(3-azabicyclo[3.1.0]hexan-3-yl)pyridine-3-carbonyl]thiazol-2-yl]-4-fluoro-anilino)propanamide], with 0.053 µM; and `CC(C(N)=O)N(c1ccc(F)cc1)c1nc(N)c(C(=O)c2ccc(N3CCCCC3)nc2)s1` (racemic) [Example 283, rac-2-(N-[4-amino-5-[6-(1-piperidyl)pyridine-3-carbonyl]thiazol-2-yl]-4-fluoro-anilino)propanamide], with 0.036 µM; and `CC(C(N)=O)N(c1ccc(F)cc1)c1nc(N)c(C(=O)c2ccc(N3CCC(F)(F)CC3)nc2)s1` (racemic) [Example 284, rac-2-(N-[4-amino-5-[6-(4,4-difluoro-1-piperidyl)pyridine-3-carbonyl]thiazol-2-yl]-4-fluoro-anilino)propanamide], with 0.033 µM. As to `CC(C(N)=O)N(c1ccc(F)cc1)c1nc(N)c(C(=O)c2ccc(N3CCC(C)(C#N)CC3)nc2)s1` (racemic) [Example 285, rac-2-(N-[4-amino-5-[6-(4-cyano-4-methyl-1-piperidy!)pyridine-3-carbonyl]thiazol-2-yl]-4-fluoro-anilino)propanamide], the IC50 stood at 0.068 µM. Next, `CC(C(N)=O)N(c1ccc(F)cc1)c1nc(N)c(C(=O)c2ccc(OCCO)cc2)s1` (racemic) [Example 292, rac-2-(N-[4-amino-5-[4-(2-hydroxyethoxy)benzoyl]thiazol-2-yl]-4-fluoro-anilino)propanamide]: 0.282 µM; `CC(C(N)=O)N(c1ccc(F)cc1)c1nc(N)c(C(=O)c2ccc(C#N)c(F)c2)s1` (single isomer, unassigned) [Example 21.1, 2-(N-[4-amino-5-(4-cyano-3-fluoro-benzoyl)thiazol-2-yl]-4-fluoro-anilino)propanamide]: 5.51 µM.

As for `CC(C(N)=O)N(c1ccc(OC(F)(F)F)cc1)c1nc(N)c(C(=O)c2ccc(F)cc2)s1` (single isomer, unassigned) [Example 27.1, 2-[N-[4-amino-5-(4-fluorobenzoyl)thiazol-2-yl]-4-(trifluoromethoxy)anilino]propanamide], the IC50 was found to be 8.65 µM. Turning to `CC(C(N)=O)N(c1ccc(OC(F)(F)F)cc1)c1nc(N)c(C(=O)c2ccc(F)cc2)s1` (single isomer, unassigned) [Example 27.2, 2-[N-(4-amino-5-(4-fluorobenzoyl)thiazol-2-yl]-4-(trifluoromethoxy)anilino]propanamide], the IC50 was found to be 0.0436 µM. Next, `CC(C(N)=O)N(c1ccc(F)cc1)c1nc(N)c(C(=O)c2ccc(C(F)(F)F)nc2)s1` (single isomer, unassigned) [Example 29.1, 2-(N-[4-amino-5-[6-(trifluoromethyl)pyridine-3-carbonyl]thiazol-2-yl]-4-fluoro-anilino)propanamide]: 12.5 µM; `CC(C(N)=O)N(c1ccc(F)cc1)c1nc(N)c(C(=O)c2ccc(C(F)(F)F)nc2)s1` (single isomer, unassigned) [Example 29.2, 2-(N-[4-amino-5-[6-(trifluoromethyl)pyridine-3-carbonyl]thiazol-2-yl]-4-fluoro-anilino)propanamide]: 0.0462 µM. Then `CC(C(N)=O)N(c1ccc(F)cc1)c1nc(N)c(C(=O)c2ccc(C#N)cc2)s1` (single isomer, unassigned) [Example 33.1, 2-(N-[4-amino-5-(4-cyanobenzoyl)thiazol-2-yl]-4-fluoro-anilino)propanamide], with 8.61 µM; and `CC(C(N)=O)N(c1ccc(F)cc1)c1nc(N)c(C(=O)c2ccc(C#N)cc2)s1` (single isomer, unassigned) [Example 33.2, 2-(N-[4-amino-5-(4-cyanobenzoyl)thiazol-2-yl]-4-fluoro-anilino)propanamide], with 0.0228 µM; and `CC(C(N)=O)N(c1ccc(Cl)cc1)c1nc(N)c(C(=O)c2ccc(F)cc2)s1` (single isomer, unassigned) [Example 37.1, 2-(N-[4-amino-5-(4-fluorobenzoyl)thiazol-2-yl]-4-chloro-anilino)propanamide], with 2 µM. Next, `CC(C(N)=O)N(c1ccc(Cl)cc1)c1nc(N)c(C(=O)c2ccc(F)cc2)s1` (single isomer, unassigned) [Example 37.2, 2-(N-[4-amino-5-(4-fluorobenzoyl)thiazol-2-yl]-4-chloro-anilino)propanamide]: 0.00946 µM; `CC(C(N)=O)N(c1ccc(F)cc1)c1nc(N)c(C(=O)c2ccc(Cl)cc2)s1` (single isomer, unassigned) [Example 38.1, 2-(N-[4-amino-5-(4-chlorobenzoyl)thiazol-2-yl]-4-fluoro-anilino)propanamide]: 2 µM. `CC(C(N)=O)N(c1ccc(F)cc1)c1nc(N)c(C(=O)c2ccc(OC(F)(F)F)cc2)s1` (single isomer, unassigned) [Example 40.1, 2-(N-[4-amino-5-[4-(trifluoromethoxy)benzoyl]thiazol-2-yl]-4-fluoro-anilino)propanamide]: the IC50 turned out to be 0.792 µM.

In the case of `CC(C(N)=O)N(c1ccc(F)cc1)c1nc(N)c(C(=O)c2ccc(OC(F)(F)F)cc2)s1` (single isomer, unassigned) [Example 40.2, 2-(N-[4-amino-5-[4-(trifluoromethoxy)benzoyl]thiazol-2-yl]-4-fluoro-anilino)propanamide], the IC50 was determined as 0.00708 µM. Next, `CC(C(N)=O)N(c1ccc(Cl)cc1)c1nc(N)c(C(=O)c2ccc(Cl)cc2)s1` (single isomer, unassigned) [Example 41.1, 2-(N-[4-amino-5-(4-chlorobenzoyl)thiazol-2-yl]-4-chloro-anilino)propanamide]: 2.93 µM; `CC(C(N)=O)N(c1ccc(Cl)cc1)c1nc(N)c(C(=O)c2ccc(Cl)cc2)s1` (single isomer, unassigned) [Example 41.2, 2-(N-[4-amino-5-(4-chlorobenzoyl)thiazol-2-yl]-4-chloro-anilino)propanamide]: 0.00773 µM. Next, `CC(C(N)=O)N(c1ccc(C(F)(F)F)cc1)c1nc(N)c(C(=O)c2ccc(OC(F)F)cc2)s1` (single isomer, unassigned) [Example 43.1, 2-[N-[4-amino-5-[4-(difluoromethoxy)benzoyl]thiazol-2-yl)-4-(trifluoromethyl)anilino]propanamide]: 2.73 µM; `CC(C(N)=O)N(c1ccc(C(F)(F)F)cc1)c1nc(N)c(C(=O)c2ccc(OC(F)F)cc2)s1` (single isomer, unassigned) [Example 43.2]: 0.00593 µM. Next, `CC(C(N)=O)N(c1ccc(F)cc1)c1nc(N)c(C(=O)c2ccc(OC(F)F)cc2)s1` (single isomer, unassigned) [Example 44.1, 2-(N-[4-amino-5-[4-(difluoromethoxy)benzoyl]thiazol-2-yl]-4-fluoro-anilino)propanamide]: 1.39 µM.
